ChEMBL document CHEMBL4507299, “Data for DCP probe PF-04554878” (2021)

Legend:
[1] = molecular target: Alpha-1D adrenergic receptor (Homo sapiens) (UniProt P25100); conditions: Compound concentration 10.0 uM
[2] = molecular target: Dual specificity tyrosine-phosphorylation-regulated kinase 1A (Homo sapiens) (UniProt Q13627)
[3] = molecular target: Leukocyte tyrosine kinase receptor (Homo sapiens) (UniProt P29376)
[4] = molecular target: Dual specificity tyrosine-phosphorylation-regulated kinase 1B (Homo sapiens) (UniProt Q9Y463)
Dual specificity tyrosine-phosphorylation-regulated kinase 1B (Homo sapiens), sequence (Q9Y463 whole entry, looked up): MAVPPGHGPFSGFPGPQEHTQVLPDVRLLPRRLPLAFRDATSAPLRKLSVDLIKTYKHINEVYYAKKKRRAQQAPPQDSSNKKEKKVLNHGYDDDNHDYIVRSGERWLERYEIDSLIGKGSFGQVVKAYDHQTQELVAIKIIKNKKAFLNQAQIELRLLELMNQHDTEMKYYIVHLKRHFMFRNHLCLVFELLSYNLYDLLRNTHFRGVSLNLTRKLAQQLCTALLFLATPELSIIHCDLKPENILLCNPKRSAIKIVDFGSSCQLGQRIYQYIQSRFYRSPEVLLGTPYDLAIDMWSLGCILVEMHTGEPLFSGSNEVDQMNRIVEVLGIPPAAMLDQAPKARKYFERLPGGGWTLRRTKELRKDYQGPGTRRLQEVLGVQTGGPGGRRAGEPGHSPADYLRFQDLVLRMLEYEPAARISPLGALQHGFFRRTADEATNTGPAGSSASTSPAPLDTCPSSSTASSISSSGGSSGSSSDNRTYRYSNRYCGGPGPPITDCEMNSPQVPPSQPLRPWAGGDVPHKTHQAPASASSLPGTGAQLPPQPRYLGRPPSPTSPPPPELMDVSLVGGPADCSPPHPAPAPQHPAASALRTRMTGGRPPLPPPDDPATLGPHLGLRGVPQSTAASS

[5] = molecular target: Dual specificity mitogen-activated protein kinase kinase 2 (Homo sapiens) (UniProt P36507)
Dual specificity mitogen-activated protein kinase kinase 2 (Homo sapiens), sequence (P36507 whole entry): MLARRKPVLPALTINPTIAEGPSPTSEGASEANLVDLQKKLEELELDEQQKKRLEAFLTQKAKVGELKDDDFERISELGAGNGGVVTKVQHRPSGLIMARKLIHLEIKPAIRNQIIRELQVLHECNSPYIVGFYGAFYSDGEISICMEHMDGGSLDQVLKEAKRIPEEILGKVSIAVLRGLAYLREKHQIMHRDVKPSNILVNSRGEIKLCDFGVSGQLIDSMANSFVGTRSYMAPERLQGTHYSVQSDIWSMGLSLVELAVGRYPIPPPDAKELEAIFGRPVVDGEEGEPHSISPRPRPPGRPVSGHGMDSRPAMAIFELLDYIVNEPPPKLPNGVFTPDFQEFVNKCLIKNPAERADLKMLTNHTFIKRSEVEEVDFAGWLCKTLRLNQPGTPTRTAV

[6] = molecular target: Tyrosine-protein kinase Lck (Homo sapiens) (UniProt P06239)
[7] = molecular target: Tyrosine-protein kinase CSK (Homo sapiens) (UniProt P41240)
[8] = molecular target: Macrophage-stimulating protein receptor (Homo sapiens) (UniProt Q04912)
[9] = molecular target: Bone morphogenetic protein receptor type-1A (Homo sapiens) (UniProt P36894)
[10] = molecular target: Myosin-IIIa (Homo sapiens) (UniProt Q8NEV4)
[11] = tested on: Receptor-type tyrosine-protein kinase FLT3 (Homo sapiens), P36888 [UNDEFINED MUTATION]
[12] = molecular target: Homeodomain-interacting protein kinase 1 (Homo sapiens) (UniProt Q86Z02)
[13] = tested on: Epidermal growth factor receptor (Homo sapiens), P00533 [UNDEFINED MUTATION]
[14] = molecular target: Dual specificity protein kinase CLK2 (Homo sapiens) (UniProt P49760)
[15] = molecular target: Misshapen-like kinase 1 (Homo sapiens) (UniProt Q8N4C8)
[16] = molecular target: Muscarinic acetylcholine receptor M2 (Homo sapiens) (UniProt P08172); conditions: Compound concentration 10.0 uM
[17] = molecular target: Dual serine/threonine and tyrosine protein kinase (Homo sapiens) (UniProt Q6XUX3)
[18] = molecular target: Cyclin-dependent kinase 18 (Homo sapiens) (UniProt Q07002)
[19] = molecular target: Calcium/calmodulin-dependent protein kinase type IV (Homo sapiens) (UniProt Q16566)
Calcium/calmodulin-dependent protein kinase type IV (Homo sapiens), sequence (Q16566 whole entry): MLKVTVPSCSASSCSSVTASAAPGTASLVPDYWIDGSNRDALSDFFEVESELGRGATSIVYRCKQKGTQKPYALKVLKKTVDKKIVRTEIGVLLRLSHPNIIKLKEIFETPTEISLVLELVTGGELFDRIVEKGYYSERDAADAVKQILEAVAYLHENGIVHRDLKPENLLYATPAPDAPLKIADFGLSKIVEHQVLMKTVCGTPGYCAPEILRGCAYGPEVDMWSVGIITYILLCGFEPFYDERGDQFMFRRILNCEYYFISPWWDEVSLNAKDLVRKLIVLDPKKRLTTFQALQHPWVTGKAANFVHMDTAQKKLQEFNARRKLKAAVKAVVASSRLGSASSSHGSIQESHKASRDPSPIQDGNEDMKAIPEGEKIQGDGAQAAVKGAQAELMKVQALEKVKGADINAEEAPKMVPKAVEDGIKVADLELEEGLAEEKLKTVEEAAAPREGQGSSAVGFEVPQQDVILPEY

[20] = molecular target: Sodium-dependent noradrenaline transporter (Homo sapiens) (UniProt P23975); conditions: Compound concentration 10.0 uM
[21] = molecular target: Aurora kinase C (Homo sapiens) (UniProt Q9UQB9)
[22] = molecular target: SRSF protein kinase 2 (Homo sapiens) (UniProt P78362)
Rattus norvegicus = species: Rattus norvegicus; conditions: Compound concentration 10.0 uM
[23] = molecular target: Ephrin type-B receptor 4 (Homo sapiens) (UniProt P54760)
[24] = molecular target: Testis-specific serine/threonine-protein kinase 1 (Homo sapiens) (UniProt Q9BXA7)
Testis-specific serine/threonine-protein kinase 1 (Homo sapiens), sequence (Q9BXA7 whole entry): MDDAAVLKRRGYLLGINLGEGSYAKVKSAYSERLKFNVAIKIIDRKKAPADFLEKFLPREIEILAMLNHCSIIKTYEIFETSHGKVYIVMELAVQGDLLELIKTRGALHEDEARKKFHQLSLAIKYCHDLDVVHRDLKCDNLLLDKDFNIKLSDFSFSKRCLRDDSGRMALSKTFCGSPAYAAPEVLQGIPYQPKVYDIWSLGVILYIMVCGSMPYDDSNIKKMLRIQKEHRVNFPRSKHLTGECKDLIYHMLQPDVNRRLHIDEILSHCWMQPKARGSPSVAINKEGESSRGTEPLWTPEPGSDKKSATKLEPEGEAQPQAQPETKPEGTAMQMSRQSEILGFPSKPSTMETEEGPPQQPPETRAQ

[25] = tested on: ALK tyrosine kinase receptor (Homo sapiens), Q9UM73 [C1156Y]
[26] = molecular target: Activin receptor type-1B (Homo sapiens) (UniProt P36896)
[27] = molecular target: Dual specificity protein kinase CLK1 (Homo sapiens, UniProt P49759)
[28] = molecular target: Tyrosine-protein kinase JAK1 (Homo sapiens) (UniProt P23458)
Tyrosine-protein kinase JAK1 (Homo sapiens), sequence (P23458 whole entry): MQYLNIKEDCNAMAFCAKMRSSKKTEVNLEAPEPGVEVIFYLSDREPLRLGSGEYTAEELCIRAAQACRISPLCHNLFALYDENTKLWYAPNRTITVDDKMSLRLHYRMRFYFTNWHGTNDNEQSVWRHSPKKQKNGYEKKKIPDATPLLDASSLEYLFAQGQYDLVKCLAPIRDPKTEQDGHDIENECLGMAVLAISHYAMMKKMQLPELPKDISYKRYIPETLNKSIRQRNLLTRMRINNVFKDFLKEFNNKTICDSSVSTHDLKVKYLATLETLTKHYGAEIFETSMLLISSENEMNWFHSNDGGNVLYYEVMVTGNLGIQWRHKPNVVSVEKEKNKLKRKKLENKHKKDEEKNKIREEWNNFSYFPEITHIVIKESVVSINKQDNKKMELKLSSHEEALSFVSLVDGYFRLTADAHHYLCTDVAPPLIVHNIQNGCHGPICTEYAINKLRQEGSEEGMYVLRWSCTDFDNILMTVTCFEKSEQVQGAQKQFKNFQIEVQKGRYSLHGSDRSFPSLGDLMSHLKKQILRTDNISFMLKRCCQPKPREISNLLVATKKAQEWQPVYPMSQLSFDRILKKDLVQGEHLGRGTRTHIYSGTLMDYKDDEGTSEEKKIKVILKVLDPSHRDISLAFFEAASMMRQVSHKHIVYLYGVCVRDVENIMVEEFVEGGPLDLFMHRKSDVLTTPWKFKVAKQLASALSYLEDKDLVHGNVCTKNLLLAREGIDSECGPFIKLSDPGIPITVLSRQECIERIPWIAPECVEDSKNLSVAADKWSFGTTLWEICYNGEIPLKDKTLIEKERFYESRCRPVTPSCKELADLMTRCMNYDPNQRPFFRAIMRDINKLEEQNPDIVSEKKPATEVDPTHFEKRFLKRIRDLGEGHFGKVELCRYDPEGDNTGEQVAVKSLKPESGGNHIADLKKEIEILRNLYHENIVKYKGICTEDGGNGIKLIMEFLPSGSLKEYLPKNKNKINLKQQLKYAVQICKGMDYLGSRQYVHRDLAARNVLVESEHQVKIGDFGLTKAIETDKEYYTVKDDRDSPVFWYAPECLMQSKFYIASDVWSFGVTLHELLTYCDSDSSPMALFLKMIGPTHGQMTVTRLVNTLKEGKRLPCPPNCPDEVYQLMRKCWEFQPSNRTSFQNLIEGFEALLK

[29] = molecular target: Dual specificity testis-specific protein kinase 1 (Homo sapiens) (UniProt Q15569)
[30] = molecular target: Membrane-associated tyrosine- and threonine-specific cdc2-inhibitory kinase (Homo sapiens) (UniProt Q99640)
[31] = tested on: Epidermal growth factor receptor (Homo sapiens), P00533 [T790M]
[32] = tested on: Epidermal growth factor receptor (Homo sapiens), P00533 [UNDEFINED MUTATION]; remark: listed apart in the source
[33] = molecular target: Beta-1 adrenergic receptor (Homo sapiens) (UniProt P08588); conditions: Compound concentration 10.0 uM
Beta-1 adrenergic receptor (Homo sapiens), sequence (P08588 whole entry, looked up): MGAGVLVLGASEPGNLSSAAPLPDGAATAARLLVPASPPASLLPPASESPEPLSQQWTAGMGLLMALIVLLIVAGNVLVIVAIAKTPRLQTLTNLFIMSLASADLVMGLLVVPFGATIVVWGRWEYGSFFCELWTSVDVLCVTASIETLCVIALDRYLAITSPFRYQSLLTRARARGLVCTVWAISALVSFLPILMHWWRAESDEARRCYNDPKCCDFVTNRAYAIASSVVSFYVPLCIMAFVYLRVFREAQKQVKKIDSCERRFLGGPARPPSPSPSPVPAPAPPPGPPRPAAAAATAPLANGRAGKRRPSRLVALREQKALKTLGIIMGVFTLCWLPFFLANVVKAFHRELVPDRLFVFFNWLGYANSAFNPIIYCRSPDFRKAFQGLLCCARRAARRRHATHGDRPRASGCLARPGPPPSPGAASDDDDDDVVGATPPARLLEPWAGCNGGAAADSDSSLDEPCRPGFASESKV

[34] = molecular target: Serine/threonine-protein kinase 17A (Homo sapiens) (UniProt Q9UEE5)
[35] = molecular target: GABA-A receptor; anion channel (Rattus norvegicus) (UniProt O09028+P15431+P18506+P18508+P19969+P20236+P23574+P23576+P28471+P28473+P30191+P62813+P63079+P63138+Q91ZM7+Q9ES14); conditions: Compound concentration 10.0 uM
[36] = molecular target: Non-receptor tyrosine-protein kinase TNK1 (Homo sapiens) (UniProt Q13470)
[37] = molecular target: Protein kinase C delta type (Homo sapiens) (UniProt Q05655)
Protein kinase C delta type (Homo sapiens), sequence (Q05655 whole entry, looked up): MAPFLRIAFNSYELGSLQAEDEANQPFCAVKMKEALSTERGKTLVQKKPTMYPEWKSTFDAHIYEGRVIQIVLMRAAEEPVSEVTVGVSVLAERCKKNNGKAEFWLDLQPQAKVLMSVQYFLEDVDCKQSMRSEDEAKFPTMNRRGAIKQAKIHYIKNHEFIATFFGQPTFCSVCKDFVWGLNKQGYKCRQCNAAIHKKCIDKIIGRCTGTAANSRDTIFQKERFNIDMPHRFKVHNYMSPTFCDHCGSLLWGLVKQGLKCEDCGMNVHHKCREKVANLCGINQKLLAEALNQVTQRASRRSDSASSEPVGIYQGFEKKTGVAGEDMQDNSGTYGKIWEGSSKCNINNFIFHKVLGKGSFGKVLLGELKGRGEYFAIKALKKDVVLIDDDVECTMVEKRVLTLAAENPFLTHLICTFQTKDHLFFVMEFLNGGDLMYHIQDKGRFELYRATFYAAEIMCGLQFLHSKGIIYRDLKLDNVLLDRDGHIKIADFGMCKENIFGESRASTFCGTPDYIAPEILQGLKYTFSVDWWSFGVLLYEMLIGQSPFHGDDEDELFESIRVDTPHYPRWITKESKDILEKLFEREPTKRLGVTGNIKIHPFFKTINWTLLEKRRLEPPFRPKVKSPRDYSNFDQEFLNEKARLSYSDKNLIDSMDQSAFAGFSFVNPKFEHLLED

[38] = tested on: Receptor-type tyrosine-protein kinase FLT3 (Homo sapiens), P36888 [K663Q]
[39] = molecular target: Serine/threonine-protein kinase LATS1 (Homo sapiens) (UniProt O95835)
[40] = tested on: Phosphatidylinositol 4,5-bisphosphate 3-kinase catalytic subunit alpha isoform (Homo sapiens), P42336 [H1047L]
[41] = molecular target: Myosin light chain kinase 2, skeletal/cardiac muscle (Homo sapiens) (UniProt Q9H1R3)
[42] = tested on: Phosphatidylinositol 4,5-bisphosphate 3-kinase catalytic subunit alpha isoform (Homo sapiens), P42336 [E545K]
[43] = molecular target: 5-hydroxytryptamine receptor 1B (Homo sapiens) (UniProt P28222); conditions: Compound concentration 10.0 uM
[44] = Compound concentration 100.0 nM
[45] = Compound concentration 1000.0 nM

Alpha-1D adrenergic receptor (Homo sapiens), sequence (P25100 whole entry): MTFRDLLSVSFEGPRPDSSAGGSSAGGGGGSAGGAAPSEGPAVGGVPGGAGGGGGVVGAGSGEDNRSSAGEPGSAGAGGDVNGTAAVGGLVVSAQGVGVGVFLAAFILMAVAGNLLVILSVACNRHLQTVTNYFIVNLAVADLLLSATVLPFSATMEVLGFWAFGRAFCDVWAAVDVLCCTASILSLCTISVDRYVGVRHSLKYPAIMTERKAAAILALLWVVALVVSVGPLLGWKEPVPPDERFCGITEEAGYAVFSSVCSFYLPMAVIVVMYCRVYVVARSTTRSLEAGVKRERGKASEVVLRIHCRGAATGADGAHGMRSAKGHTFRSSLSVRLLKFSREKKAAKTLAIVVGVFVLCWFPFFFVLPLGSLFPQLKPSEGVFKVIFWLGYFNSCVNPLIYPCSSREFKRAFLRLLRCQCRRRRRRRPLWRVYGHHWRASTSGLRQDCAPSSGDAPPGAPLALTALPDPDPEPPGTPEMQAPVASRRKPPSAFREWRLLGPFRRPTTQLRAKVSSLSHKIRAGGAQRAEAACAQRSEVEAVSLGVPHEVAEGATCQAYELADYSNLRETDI

Compound CNC(=O)c1ccc(Nc2ncc(C(F)(F)F)c(NCc3nccnc3N(C)S(C)(=O)=O)n2)cc1 [DEFACTINIB] has an inhibition [1] of 4.13%, a residual activity [2, 44] of 71% and a residual activity [3, 44] of 89%. The residual activity [4, 44] was 79%, the residual activity [5, 44] was 100% and the residual activity [6, 44] was 87%. The residual activity [7, 44] was 100%, the residual activity [8, 44] was 100% and the residual activity [9, 44] was 100%. It also gave a residual activity [10, 44] of 100%, a residual activity [11, 44] of 9% and a residual activity [12, 44] of 27%. For the same compound, the residual activity [13, 44] was 97%, the residual activity [14, 44] was 0% and the residual activity [15, 44] was 44%. The inhibition [16] was 19.5%, the residual activity [17, 44] was 87% and the residual activity [18, 44] was 68%. It also gave a residual activity [19, 44] of 100%, an inhibition [20] of 7.81% and a residual activity [21, 44] of 47%. It also gave a residual activity [22, 44] of 100%, an inhibition (Rattus norvegicus) of 31.4% and a residual activity [23, 44] of 94%. For the same compound, the residual activity [24, 44] was 64%, the residual activity [25, 44] was 74% and the residual activity [26, 44] was 69%. The residual activity [27, 44] was 23%, the residual activity [28, 44] was 29% and the residual activity [29, 44] was 96%. The residual activity [30, 44] was 94%, the residual activity [31, 44] was 99% and the residual activity [32, 44] was 85%. For the same compound, the inhibition [33] was -0.83%, the residual activity [34, 44] was 19% and the inhibition [35] was -7.85%. The residual activity [36, 44] was 100%, the residual activity [37, 44] was 100% and the residual activity [38, 44] was 21%. It also gave a residual activity [39, 44] of 96%, a residual activity [40, 44] of 32% and a residual activity [41, 44] of 63%. For the same compound, the residual activity [42, 44] was 100% and the inhibition [43] was 12.5%.

Work on CN(c1ccnc(CNc2nc(Nc3ccc4c(c3)CC(=O)N4)ncc2C(F)(F)F)n1)S(C)(=O)=O [PF-00911705] yielded an inhibition [1] of 15.9%, a residual activity [2, 45] of 19% and a residual activity [3, 45] of 100%. The residual activity [4, 45] was 31%, the residual activity [5, 45] was 82% and the residual activity [6, 45] was 46%. It also gave a residual activity [7, 45] of 74%, a residual activity [8, 45] of 72% and a residual activity [9, 45] of 89%. The residual activity [10, 45] was 100%, the residual activity [11, 45] was 0% and the residual activity [12, 45] was 45%. For the same compound, the residual activity [13, 45] was 75%, the residual activity [14, 45] was 0% and the residual activity [15, 45] was 53%. For the same compound, the inhibition [16] was -2.08%, the residual activity [17, 45] was 53% and the residual activity [18, 45] was 100%. For the same compound, the residual activity [19, 45] was 100%, the inhibition [20] was 3.15% and the residual activity [21, 45] was 14%. The residual activity [22, 45] was 40%, the inhibition (Rattus norvegicus) was 62.1% and the residual activity [23, 45] was 96%. It also gave a residual activity [24, 45] of 56%, a residual activity [25, 45] of 77% and a residual activity [26, 45] of 26%. The residual activity [27, 45] was 4.4%, the residual activity [28, 45] was 20% and the residual activity [29, 45] was 97%. It also gave a residual activity [30, 45] of 100%, a residual activity [31, 45] of 100% and a residual activity [32, 45] of 76%. For the same compound, the inhibition [33] was 16.4%, the residual activity [34, 45] was 11% and the inhibition [35] was 29.5%. It also gave a residual activity [36, 45] of 65%, a residual activity [37, 45] of 78% and a residual activity [38, 45] of 16%. It also gave a residual activity [39, 45] of 51%, a residual activity [40, 45] of 92% and a residual activity [41, 45] of 53%. The residual activity [42, 45] was 100% and the inhibition [43] was 5.78%.
